Reference: patent publication US4294832A, “Tetrahydroisoquinoline compounds and a pharmaceutical composition thereof” (Tanabe Seiyaku Co., Ltd., priority 1979, dated 1981)
Counter-ions that a name gives are not always drawn.

Experiments:
[1] = tested on: spontaneously hypertensive rats (SHR); test: Hypotensive activity in SHR (systolic blood pressure, tail plethysmographic technique); type: in vivo, rat; settings: 50 mg/kg orally
Protocol: Hypotensive activity in SHR:
A test compound (dose: 50 mg/kg) suspended in an aqueous carboxymethylcellulose solution was administered orally to spontaneously hypertensive rats (SHR) fasted overnight. The systolic blood pressure of the rats was measured by the tail plethysmographic technique (The Journal of Laboratory and Clinical Medicine 78(1971), page 957). The hypotensive activity of the test compound was estimated from the decreased level of blood pressure.

mice = test: Oral toxicity in mice; type: in vivo, mouse; settings: 2 g/kg orally
Protocol: Furthermore, when a test compound was administered orally to spontaneously hypertensive rats, 3(S)-2-[N-ethyl-N-(2-n-butoxycarbonylethyl)carbamoyl]-1,2,3,4-tetrahydroisoquinoline-3-carboxylic acid 1/2 calcium salt at a dose of 50 mg/kg decreased the blood pressure by 24 mm Hg. In addition, the toxicity of the compound (I) is considerably low. For example, when 3(S)-2-[N-ethyl-N-(2-n-butoxycarbonylethyl)carbamoyl]-1,2,3,4-tetrahydroisoquinoline-3-carboxylic acid 1/2 calcium salt was administered orally to mice at a dose of 2 g/kg, no mouse died within 7 days after said administration.

## CCCCOC(=O)CCN(CC)C(=O)N1Cc2ccccc2C[C@H]1C(=O)O [3(S)-2-[N-ethyl-N-(2-n-butoxycarbonylethyl)carbamoyl]-1,2,3,4-tetrahydroisoquinoline-3-carboxylic acid 1/2 calcium salt]
[1]; SHR fasted overnight, systolic
  Decrease in blood pressure (-Δ mm Hg): 24 mm Hg
[1]; hypotensive action, SHR
  Duration of action: > 6 h
mice
  mortality within 7 days after administration: no mouse died
